Residues, ends and D or L forms follow the SMILES beside them. *: point of attachment. Palmitoyl = CCCCCCCCCCCCCCCC(=O)*
What was measured:
Assay type in all cases: cell-based
FPR2 [1] = target: T1, FPR2 (Homo sapiens, UniProt P25090); test: Inhibition of WKYMVM-induced superoxide release, human neutrophils
T1 construct: Human peripheral blood neutrophils were isolated from buffy coats from healthy blood donors; endogenous in cells; host or cells: human peripheral blood neutrophils from buffy coats of healthy donors
T1 sequence (P25090 1-351): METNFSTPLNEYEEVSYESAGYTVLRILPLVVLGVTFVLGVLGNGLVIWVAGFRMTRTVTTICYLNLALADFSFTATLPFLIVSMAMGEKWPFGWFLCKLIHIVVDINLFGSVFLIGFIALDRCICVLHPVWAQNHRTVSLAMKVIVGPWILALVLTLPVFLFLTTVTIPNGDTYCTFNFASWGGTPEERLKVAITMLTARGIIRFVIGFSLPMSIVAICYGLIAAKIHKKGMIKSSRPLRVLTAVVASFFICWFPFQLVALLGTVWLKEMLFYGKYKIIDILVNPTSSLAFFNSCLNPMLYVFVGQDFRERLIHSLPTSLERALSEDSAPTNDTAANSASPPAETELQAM
From the text: (§1) Human peripheral blood neutrophils were isolated from buffy coats from healthy blood donors using dextran sedimentation and Ficoll-Paque gradient centrifugation as described. The remaining erythrocytes were disrupted by hypotonic lysis and the neutrophils were washed twice, suspended in KRG and, stored on melting ice until use. This isolation process permits cells to be purified with minimal granule mobilization. The buffy coats were obtained from the blood bank at Sahlgrenska University Hospital. Ethics approval was not needed since the buffy coats were provided anonymously and could not be traced back to a specific individual. This is in line with Swedish legislation section code 4§ 3p SFS 2003:460 (Lag om etikprövning av forskning som avser människor).
(§2) NADPH-oxidase activity was determined using an isoluminol and HRP-enhanced chemiluminescence (CL) system that allow for the determination of superoxide production. The CL activity was measured in a six-channel Biolumat LB 9505 apparatus (Berthold Co., Wildbad, Germany), using disposable 4-mL polypropylene tubes with 1 mL reaction mixture. The tubes contained 4 U HRP and 10 μg/mL isoluminol together with the cells that were equilibrated in the Biolumat for 5 min at 37°C, after which the stimulus solution (100 μL) was added. The light emission was recorded continuously over time and presented as superoxide production (in arbitrary light units, cpm x10^-6) as a function of time (min). The activity before stimulus addition was recorded as basal line and this activity was not changed in vehicle control samples. […]
(§3) Data analysis was performed using Graph Pad Prism 7.0. The EC50/IC50 values were determined from experiments in which the activities were normalized to the response induced by maximal response or induced by agonist in the absence of inhibitor. […]
Human neutrophils (10^5 cells) were pre-incubated without (solid line) or with mF2Pal16 (1 μM) for 5 min before stimulation with A) the FPR2 specific agonist WKYMVM (50 nM, indicated by the arrow). […] The release of superoxide anions was measured continuously. […]

FPR1 = test: Inhibition of fMLF-induced superoxide release, human neutrophils; settings: pepducin 1 μM; fMLF 50 nM
From the text: as §1
as §2, with “The tubes contained 4 U HRP and 10 μg/mL isoluminol together with the cells that were equilibrated in the Biolumat for 5 min at 37°C, after which the stimulus solution (100 μL) was added.” left out

Fpr2 [2] = target: T2, Fpr2 (Mus musculus, UniProt O88536); test: Inhibition of F2Pal16-induced superoxide release, WT mouse neutrophils; settings: Boc2 2 μM or peptidomimetic inhibitor 1 μM (five experiments), or mF2Pal16 500 nM against F2Pal16 500 nM (three experiments); 5 min pre-incubation
T2 construct: WT mouse neutrophils (5 x 10^4 cells) were pre-incubated without (solid line) or with mF2Pal16; endogenous in cells; host or cells: bone marrow neutrophils of C57BL/6 wild-type mice, TNF-alpha primed
T2 sequence (O88536 1-351): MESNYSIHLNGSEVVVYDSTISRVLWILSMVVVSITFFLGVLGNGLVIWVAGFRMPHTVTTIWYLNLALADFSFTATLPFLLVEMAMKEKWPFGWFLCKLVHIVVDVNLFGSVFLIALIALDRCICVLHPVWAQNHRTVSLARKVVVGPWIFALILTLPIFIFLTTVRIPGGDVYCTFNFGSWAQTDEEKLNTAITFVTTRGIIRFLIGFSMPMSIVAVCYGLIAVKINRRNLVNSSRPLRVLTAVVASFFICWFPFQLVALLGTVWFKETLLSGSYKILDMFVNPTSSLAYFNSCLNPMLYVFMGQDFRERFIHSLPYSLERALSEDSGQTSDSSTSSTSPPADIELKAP
From the text: Mice (8–12 weeks of age) were killed by cervical dislocation, the femurs and tibias were removed and freed of soft tissue attachments, and the extreme distal tip of each extremity was cut off. KRG without Ca^2+ and Mg^2+ (KRG-) was forced through the bone by using a 1-mL syringe with a 27-gauge needle. After dispersing cell clumps and removing the debris, the bone marrow granulocytes were isolated according to an earlier described procedure with some modifications. Briefly, a cell suspension in 2 mL of KRG- was laid on top of a three-layer Percoll gradient (1.095, 1.085, and 1.070 g/mL). The density of each Percoll solution was verified using density marker beads. After centrifugation at 500 × g for 30 min at 4°C in a swinging bucket rotor, the lowest band (1.085/1.095 g/mL interface) was collected as the neutrophil fraction. After washing with KRG-, remaining red blood cells were eliminated by hypotonic lysis. After a final wash with KRG-, the cells were resuspended in KRG. The cell number and population of bone marrow cells were determined by flow cytometry based on forward scatter (size) and side scatter (density) localization.
as §2, with “The tubes contained 4 U HRP and 10 μg/mL isoluminol together with the cells that were equilibrated in the Biolumat for 5 min at 37°C, after which the stimulus solution (100 μL) was added.” left out
as §3

## CCCCCCCCCCCCCCCC(=O)N[C@@H](CCCCN)C(=O)N[C@H](C(=O)N[C@@H](CC(N)=O)C(=O)N[C@@H](CCCNC(=N)N)C(=O)N[C@@H](CCCNC(=N)N)C(=O)N[C@@H](CC(N)=O)C(=O)N[C@@H](CC(C)C)C(=O)N[C@H](C(=O)N[C@@H](CC(N)=O)C(=O)N[C@@H](CO)C(=O)N[C@@H](CO)C(=O)N[C@@H](CCCNC(=N)N)C(=O)N1CCC[C@H]1C(=O)N[C@@H](CC(C)C)C(=O)N[C@@H](CCCNC(=N)N)C(=O)N[C@H](C(=O)O)C(C)C)C(C)C)[C@@H](C)CC [mF2Pal16] (Palmitoyl-KINRRNLVNSSRPLRV-OH; C-terminus assumed)
FPR2 [1]; human neutrophils
  magnitude of FPR2 inhibitory effect compared with PBP10: not of the same magnitude as that of the most potent FPR2 inhibitor PBP10
FPR2 [1]; pepducin 1 μM pre-incubated (mF2Pal16, F1Pal16: 5 min), WKYMVM 50 nM
  effect on WKYMVM response, human neutrophils: largely inhibited
FPR1
  effect on fMLF response, human neutrophils: lack of inhibitory effect
Fpr2 [2]
  effect of inhibitor on F2Pal16 response, WT mouse neutrophils: inhibitory effect

Reference: PMC5608352, “Formyl peptide derived lipopeptides disclose differences between the receptors in mouse and men and call the pepducin concept in question” (PLoS ONE, 2017)
